Results from patent US20220087990A1, “APPLICATION OF RIFAMYCIN-QUINOLIZIDONE CONJUGATE MOLECULE AND PHARMACEUTICALLY ACCEPTABLE SALT THEREOF” (priority 2019, published 2022).
Like-named read-outs stand apart in the source and are kept apart here.

Columns and labels:
Type in all cases: in vivo, Staphylococcus aureus; Balb/c mice
[1] = test system: quinolone-resistant Staphylococcus aureus CB1823 (parC^S80F); details: I 30 mg/kg, rifampicin+levofloxacin 20+25 mg/kg
[2] = test system: quinolone-resistant Staphylococcus aureus CB1840 (norA^up); details: I 30 mg/kg, rifampicin+levofloxacin 20+25 mg/kg
[3] = test system: Staphylococcus aureus CB1857 (parC^S80F+norA^up); test: Mouse subcutaneous catheter implant biofilm infection model
Procedure: (§1) Test Drug: rifamycin-quinolizidone conjugate molecule I was provided by TenNor Therapeutics, Ltd., and was stored at −20° C. Other test compounds and reagents are commercially available. […] For remaining test agents, aqueous vehicles of sterile water, 5% sodium bicarbonate or 0.9% normal saline were added to the compound shown in formula I. The rifamycin-quinolizidone conjugate molecule formulation shown in formula I was administered at 30 mg/kg.
(§2) Bacteria: The bacteria used were biofilm forming Staphylococcus aureus strains. These were a wild-type parent biofilm strain CB1406 and it's isogenic fluoroquinoline-resistant derivatives CB1823 (parC^S80F), CB1840 (norA^up) and CB1857 (parC^S80F30 norA^up). Minimal inhibit concentrations (MICs) were determined by broth microdilution assays recommended by CLSI.
(§3) Test animals: female 5-6 week old Balb/c mice were used in this embodiment. The mice had free access to food and water during the course of this test and animal procedures were compliant with UNTHSC Institutional Animal Care and Use Committee (IACUC) guidelines.
(§4) In vitro preparation of colonized implants: Teflon venous catheters (14-Guage AbboCath-T #271-1000 or Braun Introcan #425 2594) were cut into 1 cm segments, sterilized by soaking in 70% ethanol for 15 minutes, dried under UV light for 20 minutes followed by aseptic placement in sterile 1.5 mL polypropylene tubes warmed to 37° C. Inocula were prepared by growing overnight broth cultures, which were diluted in 1:10 in tryptic soy broth plus 0.25% glucose (TSBG) and incubated with 250 rpm at 37° C. for 1 hour. Cultures were diluted to 1.0E+0^6 CFU/mL in 37° C. TSBG, 1 mL was added to each catheter tube, incubated at 37° C. without shaking for an additional 2.5 hours, and then cooled to 18° C. to slow growth until implant surgeries were completed.
(§5) Formation and treatments of subcutaneous implant infections: the mice were anesthetized with isoflurane vapors (4 L/min). Each flank was shaved, sterilized with ethanol/betadine and two 3 mm incisions made. Subcutaneous pockets were excavated, then catheter segments pre-colonized with adherent bacteria inserted into the pockets closed with surgical staples. The mice were returned to their cages and regularly monitored for adverse reactions. Treatments were initiated one week post surgery (bacterial colonization and biofilm formation) twice daily by intraperitoneal injections (IP) for 7 days, 7 days treatment plus a 7 days rebound period with no treatment and 7 days treatment plus 7 days rebound+7 days re-treatment with 5 mice (total 10 implants) per treatment or sampling group. Implant-associated bacteria were monitored by sampling colonized catheter segments during the course of implant surgeries and at regular intervals for up to 28 days post infection.
(§6) Sampling of infected implants: infected mice were euthanized by CO2 inhalation, then flanks were sterilized with 70% ethanol, and the infected catheter segments were excised into 1 mL of phosphate buffered saline pH 7.2 (1×PBS). Bacteria that adhered to the internal surfaces of explanted catheter segments were mechanically disrupted (aseptically) by repeated draws/dispenses of 200 μL 1×PBS from a micropipette tip inserted into catheter lumens, followed by 5 min vortexing at high speed. Explanted samples were then snap frozen in dry ice/ethanol and stored at −80° C. until CFU counts were determined.
(§7) CFU count determination: the catheters were rapidly thawed in a 37° C. water bath, and vortexed for 2 minutes, serially diluted and spotted (8 μL) on agar plates. Viable cell counts for efficacy were determined by plating on drug free Charcoal or MHII agar plates. […] The detection limit for all CFU determinations was less than or equal to 2.09 log10 CFU/implant.
(§8) The counts were multiplied by the serial dilution factor. The resulting raw values were converted to log10 CFU for calculation of means and standard deviations.

[4] = test system: S. aureus CB1406, CB1823, CB1840 and CB1857; details: rebound dosing regimen, mean over strains
Procedure: as §1, §2, §3, §4, §5, §6, §7, §8

[5] = test system: quinolone-resistant Staphylococcus aureus CB1840 (norA^up); details: for log10 CFU reduction in bacterial counts: rebound regimen
Procedure: as §1, §2, §3, §4, §5, §6, §7, §8

[6] = test system: quinolone-resistant Staphylococcus aureus CB1823 (parC^S80F); details: for log10 CFU reduction in bacterial counts: rebound regimen
Procedure: as §1, §2, §3, §4, §5, §6, §7, §8

[7] = test system: Staphylococcus aureus CB1406 (wild type); details: for mean Log10 CFU/catheter / log10 CFU reduction in bacterial counts: CB1406; for log10 CFU reduction in bacterial counts: rebound regimen
Procedure: as §1, §2, §3, §4, §5, §6, §7, §8

[8] = 14-day treatment regimen, Day 21, IP bid
[9] = 14-day treatment regimen, Day 7 (initiation of treatment)
[10] = rebound treatment regimen, Day 7 (initiation of treatment)
[11] = rebound treatment regimen, Day 14 (after 7 days of administration), IP bid, I 30 mg/kg, rifampicin+levofloxacin 20+25 mg/kg
[12] = rebound treatment regimen, Day 21 (7 days of rebound)
[13] = rebound treatment regimen, Day 28 (7 days of re-treatment)
[14] = following additional 7 treatment days

CO[C@H]1/C=C/O[C@@]2(C)Oc3c(C)c(O)c4c(O)c(c(/C=N/N5CCC(N(C)C6([C@@H]7CCN(c8c(F)cn9c(=O)c(C(=O)O)cc(C%10CC%10)c9c8C)C7)CC6)CC5)c(O)c4c3C2=O)NC(=O)/C(C)=C\C=C\[C@H](C)[C@H](O)[C@@H](C)[C@@H](O)[C@@H](C)[C@H](OC(C)=O)[C@@H]1C [I]
mean Log10 CFU/catheter [1, 8]: 2.70 Log10 CFU/catheter
log reduction in bacterial counts at the catheter site ([1]; 14 consecutive days bid): 4.3 log
mean Log10 CFU/catheter [2, 8]: 2.10 Log10 CFU/catheter
log10 CFU reduction in bacterial counts at the catheter site ([2]; 14 consecutive days bid): 4.9 log10 CFU
mean Log10 CFU/catheter [3, 9]: 6.81 Log10 CFU/catheter
mean Log10 CFU/catheter ([3]; 14-day treatment regimen, Day 21, IP bid, I 30 mg/kg, rifampicin+levofloxacin 20+25 mg/kg): 2.30 Log10 CFU/catheter
log10 CFU reduction in bacterial counts at the catheter site ([3]; 14 consecutive days bid, I 30 mg/kg, rifampicin+levofloxacin 20+25 mg/kg): 4.5 log10 CFU
log10 CFU reduction in bacterial counts ([3]; rebound regimen, following 7 days of treatment): 2.5 log10 CFU
mean Log10 CFU/catheter [3, 10]: 6.81 Log10 CFU/catheter
mean Log10 CFU/catheter [3, 11]: 4.26 Log10 CFU/catheter
mean Log10 CFU/catheter [3, 12]: 2.40 Log10 CFU/catheter
mean Log10 CFU/catheter [3, 13]: 2.45 Log10 CFU/catheter
Mean Log10 CFU reduction ([4]; following 7 days of re-treatment): 4.6 Log10 CFU
Mean Log10 CFU reduction ([4]; following 7 days of treatment): 2.4 Log10 CFU
Mean Log10 CFU reduction ([4]; following 7 days untreated (rebound)): 4.6 Log10 CFU
mean Log10 CFU/catheter [5, 9]: 7.01 Log10 CFU/catheter
log10 CFU reduction in bacterial counts ([5]; following 7 days of treatment): 2.4 log10 CFU
log10 CFU reduction in bacterial counts ([5]; following 7 days untreated): 4.9 log10 CFU
log10 CFU reduction in bacterial counts [5, 14]: 4.9 log10 CFU
mean Log10 CFU/catheter [5, 10]: 7.01 Log10 CFU/catheter
mean Log10 CFU/catheter [5, 11]: 4.61 Log10 CFU/catheter
mean Log10 CFU/catheter [5, 12]: 2.10 Log10 CFU/catheter
mean Log10 CFU/catheter [5, 13]: 2.10 Log10 CFU/catheter
mean Log10 CFU/catheter [6, 9]: 7.03 Log10 CFU/catheter
log10 CFU reduction in bacterial counts ([6]; following 7 days of treatment): 2.4 log10 CFU
log10 CFU reduction in bacterial counts ([6]; following 7 days untreated): 4.4 log10 CFU
log10 CFU reduction in bacterial counts [6, 14]: 4.5 log10 CFU
mean Log10 CFU/catheter [6, 10]: 7.03 Log10 CFU/catheter
mean Log10 CFU/catheter [6, 11]: 4.61 Log10 CFU/catheter
mean Log10 CFU/catheter [6, 12]: 2.61 Log10 CFU/catheter
mean Log10 CFU/catheter [6, 13]: 2.70 Log10 CFU/catheter
mean Log10 CFU/catheter ([7]; 14-day treatment regimen, Day 7 (before treatment)): 6.82 Log10 CFU/catheter
log10 CFU reduction in bacterial counts ([7]; following 7 days of treatment): 2.1 log10 CFU
log10 CFU reduction in bacterial counts ([7]; following 7 days untreated): 4.6 log10 CFU
log10 CFU reduction in bacterial counts [7, 14]: 4.7 log10 CFU
mean Log10 CFU/catheter ([7]; rebound treatment regimen, Day 7 (before treatment)): 6.82 Log10 CFU/catheter
mean Log10 CFU/catheter [7, 12]: 2.20 Log10 CFU/catheter
mean Log10 CFU/catheter [7, 13]: 2.10 Log10 CFU/catheter
log reduction in bacterial colony counts at the catheter site ([7]; mouse, in vivo): 4.6 log
